Patent publication US20070112025A1, “Use of kynurenine-3-hydroxylase inhibitors for the preparation of medicaments for the treatment of l-dopa induced movement disorders, dyskinesias, drug addiction, pain and cataract” (priority 2003, published 2007)

Columns and labels:
glutamate release = details: KYNA 30-100 nM; without modifying ionotropic or metabotropic GLU receptor function; cited from earlier work
MTPP treated monkeys = details: NMDA antagonist in MTPP treated monkeys; cited from earlier work
6-OHDA lesioned rats = experiment: Rotational response to chronic L-DOPA in 6-OHDA lesioned rats (wearing-off model); type: in vivo, rat
Description: In 6-OHDA lesioned rats, a commonly used model of PD, motor response to L-DOPA decreases after chronic treatment. This effect mimics the “wearing-off” phenomenon observed in parkinsonian patients under chronic treatment with L-DOPA (Boldry et al., Brain Res 1995 Sep. 18; 692: 259-64).
In this rat model we evaluated the effect of Ro-618048 (40 mg/kg; ip) and of 2-(3,4-Dichloro-benzoyl)-cyclopropanecarboxylic acid (UPF-648, 50 mg/kg; ip), on the rotational response to chronic L-DOPA (28 days treatment, […]; ip) in comparison to MK-801 (0.1 mg/kg; ip). […]
To measure rotational behavior, rats were placed in circular cages and tethered to an automated rotometer. The number of complete turns performed in each 5-min period was recorded by a computer. […]
Rats were injected intraperitoneally twice a day at 8:00 and 16:00 for 28 consecutive days with either a combination of L-DOPA methylester (50 mg/kg) and the peripheral decarboxylase inhibitor benserazide (12.5 mg/kg) or saline. […] The duration of the response was measured by the time between the first 5 min interval when the rate of turning attained half its eventual average value and the first interval when the rate again declined to half its average values.
Data were analyzed by analysis of variance followed by Duncan's new multiple range test for post-hoc comparisons.

Crl:CD-1 mice = experiment: Mice formalin test; type: in vivo, mouse; details: 40 mg/kg ip 15 min before formalin, p<0.05
Description: (§1) We evaluated the analgesic activity of Ro-618048 (40 mg/kg; ip) and of 2-(3,4-Dichloro-benzoyl)-cyclopropanecarboxylic acid (UPF-648, 50 mg/kg; ip) in animal models of inflammatory and neuropathic pain (formalin test in mice) as well as in acute pain test (tail flick in rats).
(§2) Adult male Wistar rats weighing 175-200 g, and Crl:CD-1 mice weighing 22-25 g at testing were used (Harlan-Nossan, Italy).
The formalin test in mouse is a procedure used to model neurogenic inflammation and continuous pain (Shibata et al., 1989, Pain 38: 347-352) as well as some features of post-injury pain in man (Dallel et al., 1995, Pain. 61: 11-16).
According to a modified protocol from Rosland et al., (1990, Pain 42: 235-242) mice were injected subcutaneously (s.c.) with 20 μl of 2.7% solution of formalin into the plantar surface of left hindpaw and placed immediately into clear PVC observation chambers (23×12×13 cm). Pain behavior was quantified by counting the cumulative licking time (sec) of the injected paw. Measurements were taken during the early phase (0-5 min) and late phase (30-40 min) after formalin injection (Tjolsen et al., 1992, Pain 51: 5-17). […]
Mice Formalin test. […] Data were evaluated by analysis of variance followed by Dunnett's t-test.
The cumulative licking time (sec) of the injected paw was recorded during the early phase (0-5 min) and late phase (30-40 min) after formalin injection.

Male Wistar rats = experiment: Cocaine-induced behavioral sensitization (locomotor activity); type: in vivo, rat
Description: We evaluated the effect of Ro-618048 (40 mg/kg; ip) and of 2-(3,4-Dichloro-benzoyl)-cyclopropanecarboxylic acid (UPF-648, 50 mg/kg; ip) in a model of cocaine-induced behavioral sensitization in rat.
Male Wistar rats (Charles River, Kingston, N.Y.) weighing 200-250 g upon arrival were used. Locomotor activity was measured in sixteen identical metal wire hanging cages each measuring 36 cm (L)×25 cm (W)×20 cm (H). Each cage contained two sets of infrared emitter-detector photocells positioned along the long axis 1-cm above the grid floor and 8 cm from the front and back of the cage. Background noise was provided by a white noise generator. Movement within the cages produced photocell interruptions, which were automatically recorded by an IBM-compatible computer.
Animals were habituated to the locomotor activity chambers for 2-3 consecutive days before the experiment. Rats received 5 daily IP injections of cocaine (15 mg/kg) or saline and either the Kyn-3OHase inhibitor Ro-618048 (40 mg/kg ip) or its vehicle and locomotor activity was recorded for 3 hours. Ten days after the last injection of cocaine or saline (day 15), the animals were challenged with 15 mg/kg of cocaine in absence of Ro-618048 and locomotor activity was again monitored for 3 h. […]

culture lenses = experiment: In vitro models of cataract (culture lenses exposed to different insults)
Description: (§3) We evaluated the effect of a treatment with inhibitors of Kyn-3OHase (Ro-618048) and of 2-(3,4-Dichloro-benzoyl)-cyclopropanecarboxylic acid (UPF-648, 50 mg/kg; ip) in an in vivo (chronic naphtalene treatment) and an in vitro models of cataract (culture lenses exposed to different insults).

[1] = system: MPTP-treated cynomolgus (macaca fascicularis) monkeys; experiment: L-DOPA induced dyskinesia model in parkinsonian monkeys; type: in vivo, cynomolgus monkey
Description: The studies were performed in five to six female MPTP-treated cynomolgus (macaca fascicularis) monkeys (weighing 2.9 to 5.0 kg) with a stable parkinsonian syndrome and reproducible dyskinesias to L-Dopa. The animals were handled in accordance with the National Institute of Health Guide for the Care and Use of Laboratory Animals and all procedures were approved by the Institutional Animal Care Committee of Laval University. They were housed separately in observation cages and exposed to a 12 hour light/dark cycle (lights on 6.0 a.m.-6.0 p.m.) in a temperature controlled room, 23±1° C. They were fed once daily in the afternoon with pellets and fruits, and had free access to water.
RO-618048 was administered alone and simultaneously with L-Dopa. In particular: • A) RO-618048 at increasing doses, 10, 30, 100 mg/kg was administered alone on three consecutive days and compared with vehicle administered before and after treatments. • B) RO-618048 at increasing doses, 10, 30, 100 mg/kg was given simultaneously with L-Dopa/benserazide on three consecutive days and compared with L-Dopa, which was also given on three consecutive days. During the interval between the treatments, to maintain priming, the animals received an oral treatment with L-Dopa/benserazide (100/25 mg; Prolopa.). Compounds
RO-618048 at increasing doses, 10, 30, 100 mg/kg was suspended in 0.1% (vol/vol) Tween 80/sterile water and homogenized in a glass homogeniser and mixed overnight until administration, as a homogeneous suspension. The maximum volume of drug suspension administered by oral gavage (p.o) at each increasing dose was 10, 20 and 40 ml respectively. As a control, a suspension of 0.1% (vol/vol) Tween 80/sterile water was administered p.o. (2 ml/kg). L-Dopa methyl ester (Sigma, St. Louis, Mo.); always together with benserazide 50 mg, (Hoffmann-La Roche, Montreal, Quebec), at doses ranging between 25 to 30 mg/kg (based on the threshold concentration for each animal) was dissolved in 1 ml of 0.9% sterile saline and administered s.c. alone or in combination with RO-618048.
The severity of dyskinesias was rated for the face, neck, trunk, arms and legs in the following way: None=0; Mild=1; Moderate=2; Severe=3, based on the assessment of the amplitude, interference with normal motor activity and the frequency of the abnormal movements, according to a scale which we have used in several published studies. The dyskinetic score obtained was the sum of the scores for all body segments for a maximal score of 21 points. The mean dyskinetic score for each animal has been calculated as the average of all the scores obtained for 3 hours or for the total duration of the effect of the drugs.
The mean Parkinsonian scores and also the mean dyskinetic scores obtained for each monkey, during 3 hours or the total duration of the effect of a given drug, were analysed using the nonparametric Friedman's test followed by multiple comparisons based on Friedman rank sums.

lens = experiment: In vivo model of cataract (chronic naphtalene treatment)
Description: as §3

Wistar rats = experiment: Tail flick test; type: in vivo, rat; details: 40 mg/kg ip, 90 min after administration; control 3.9±0.4 sec
Description: as §1, §2
The tail flick test measures the thermal nociceptive threshold defined as the latency required to elicit a tail response to heat. The test was performed according to the method described by D'Amour and Smith (1941, J. Pharmacol. Exp. Ther. 72:74-79) using an analgesiometer (U. Basile, Italy). Rats were treated ip with the drug (Ro-618048 40 mg/kg) or vehicle and 90 min after, each animal was placed on a platform and the tail was exposed to a focused beam of radiant heat approximately 3 cm from the tip. The beam light intensity was adjusted to produce a reaction latency of 3-5 sec in control rats. The thermal nociceptive threshold was defined as the latency required to elicit a tail response. A 20 sec cut-off was used to prevent tissue damage.
Tail Flick Test. The latency was defined as the interval of time (sec) between the onset of the thermal stimulus and the flick of the tail. Data were evaluated by analysis of variance followed by Dunnett's t-test.

[2] = RO-618048 alone 10, 30, 100 mg/kg p.o., compared with vehicle

Structure (SMILES): O=C(O)c1cc(=O)c2ccccc2[nH]1 [KYNA, kynurenic acid]
- glutamate release (glutamate release): strongly inhibits glutamate release

Structure (SMILES): C[C@]12N[C@H](Cc3ccccc31)c1ccccc12 [MK801]
- L-DOPA induced dyskinesia (MTPP treated monkeys): reduced L-DOPA induced dyskinesia
- decreased rotational response to L-DOPA (duration) (6-OHDA lesioned rats; MK801 0.1 mg/kg ip, 29th day after 28 days L-DOPA): similar

Structure (SMILES): COc1ccc(S(=O)(=O)Nc2nc(-c3cccc([N+](=O)[O-])c3)cs2)cc1OC [Ro-618048]
- cumulative licking time, early phase (0-5 min) (Crl:CD-1 mice; control 106±4.39 sec): 75 ± 5.5 s
- cumulative licking time, late phase (30-40 min) (Crl:CD-1 mice; control 123±12.8 sec): 68 ± 14.3 s
- increase of locomotor response to cocaine, fifth day vs first day (Male Wistar rats; Ro-618048 40 mg/kg IP with cocaine 15 mg/kg daily for 5 days, vehicle 20% higher): did not show any significant increase
- increased locomotor activity response to cocaine challenge vs first day (Male Wistar rats; challenge cocaine 15 mg/kg ten days after last injection, without Ro-618048, pretreated 40 mg/kg IP, vehicle 30% higher): did not
- degree of opacification of the lens (culture lenses): reduce the degree of opacification of the lens
- reduction of dyskinetic response to L-Dopa ([1]; 30 mg/kg p.o. simultaneously with L-Dopa/benserazide (25 to 30 mg/kg)): about 20%
- reduction of dyskinetic response to L-Dopa ([1]; 100 mg/kg p.o. simultaneously with L-Dopa/benserazide (25 to 30 mg/kg)): about 20%
- Parkinsonian score [1, 2]: did not have any effect
- locomotor activity [1, 2]: did not have any effect
- effect on improvement of parkinsonism induced by L-Dopa ([1]; acute RO-618048 with L-Dopa): without any negative effect
- degree of opacification of the lens (lens): reduce the degree of opacification of the lens
- tail flick response latency to noxious heat (Wistar rats): 6.1 ± 0.4 s
- decreased rotational response to L-DOPA (duration) (6-OHDA lesioned rats; Ro-618048 40 mg/kg ip, acute co-administration on 29th day after 28 days L-DOPA): reversed

Structure (SMILES): O=C(O)C1CC1C(=O)c1ccc(Cl)c(Cl)c1 (stereo not drawn) [UPF-648, 2-(3,4-Dichloro-benzoyl)-cyclopropanecarboxylic acid]
- degree of opacification of the lens (culture lenses): reduce the degree of opacification of the lens
- degree of opacification of the lens (lens): reduce the degree of opacification of the lens
